Assay results published in patent publication US10815197B2, “N-sulfonyl benzamides as voltage-gated sodium channel inhibitors” (SHANGHAI HAIYAN PHARMACEUTICAL TECHNOLOGY CO., LTD., priority 2016, dated 2020).
Where two headings read alike, the source gives them in different places.

Molecular target: T1, hNav1.7 (Homo sapiens, UniProt Q15858)
T1 construct: host or cells: CHO
Assay: Manual patch clamp experiment hNav1.7 (CHO-hNav1.7 stable cell line)
Assay type: cell-based
Details: for inhibition at 0.1 µM: read-out: Inhibition of Nav1.7 100 nM(%); for inhibition at 1 µM: read-out: Inhibition of Nav1.7 1000 nM(%); for inhibitory activity against Nav1.7 (in words): comparison from Table 1
Description: Assay 1: Manual Patch Clamp Experiment of Sodium Ion (hNav1.7, hNav1.5 and hNaV1.8) and Calcium Ion (hCav3.2) Channels
hNav1.7, hNav1.5 Manual Patch Clamp Experiment:
Patch voltage clamp electrophysiology allows for the direct measurement and quantification of current block of voltage-gated sodium channels (NaV's), and allows the determination of the time and voltage-dependence of block which has been interpreted as differential binding to the resting, open and inactivated states of the sodium channel to reflect the compound's inhibitory or activating effects (Hille, B., Journal of General Physiology (1977), 69: 497-515).
Representative compounds of the present invention were subject to a manual patch clamp experiment and the purpose of this study was to test the effect of compounds on this ion channel current on a stable cell line transfected with a specific ion channel using a manual patch clamp method. The used stable cell lines CHO-hNav1.7 and HEK-hNav1.5 were from Genionics and WuXi Apptec (Shanghai) respectively.
Manual patch clamp experimental program is as follows:
(1) Preparation of solutions and compounds: The whole cell patch clamp technique was used to record hNav1.7 and hNav1.5 currents. In the experiment, the composition of extracellular fluid (mM): HEPES: 5, NaCl: 40, KCl: CaCl2: 1, MgCl2: 1, CdCl2: 0.1, TEA-Cl: 20. The pH was adjusted to 7.3 with NaOH and the osmotic pressure was adjusted to 310-320 mOsm with sucrose, filtered and stored at 4° C. The composition of the intracellular fluid (mM): HEPES: 10, NaCl: 10, CsOH: 5, CsF: 140, EGTA: 1. The pH was adjusted to 7.3 with CsOH and the osmotic pressure was adjusted to 280-290 mOsm with sucrose, filtered and stored at −20° C.
The positive control and the test compound were firstly dissolved in 100% DMSO (Sigma-Aldrich, D2650), configured as stock solution at a concentration (100 nM, 1000 nM).) The above stock solution was serially diluted with DMSO prior to the experiment, the solution was further diluted with extracellular solution to obtain the test solution of the desired concentration.
(2) Manual Patch Clamp Experiment: The cell suspension was added to a 35 mm petri dish and placed on an inverted microscope stage. The cells were perfused with an extracellular fluid and the flow rate was 1-2 mL/min after cell adherence. The glass microelectrode was prepared in two steps by a microelectrode puller with an inlet water resistance of 2-5 MΩ. A/D-D/A digital-analog conversion was performed by Digidata 1440 (Molecular Devices) and pCLAMP software (version 10.2, Molecular Devices) for stimulation and signal acquisition; the signal was amplified by patch clamp amplifier (Multiclamp 700B, Molecular Devices), and filtering is 4 KHz.
Two different voltage stimulation procedures were used in the hNav1.7 and hNav1.5 manual patch clamp experiments.
One is the inactivation stimulation program, the clamp potential is set at V1/2 of the corresponding channel, i.e., about 50% of the channels are inactivated, then the voltage is applied to −120 mV for 50 ms, then depolarized to −10 mV for 20 ms leading to sodium current, and finally returned to the clamp potential. This stimulation program can also be called channel state-dependent voltage stimulation program.
The other is the non-inactivation stimulation program, the clamp potential is maintained at −120 mV, voltage stimulation is given to −10 mV for 20 ms leading to sodium current, and finally returned to the clamp potential. That is, all channels have not experienced inactivation status, but activate directly from the resting state under the conditions of the stimulation program.
The time intervals of these two voltage stimulation programs were 10 s. The inhibitory effect of the compound was calculated by the change of the current before and after dosing, the IC50 value was fitted by the Hill equation.

T1 sequence (Q15858 whole entry): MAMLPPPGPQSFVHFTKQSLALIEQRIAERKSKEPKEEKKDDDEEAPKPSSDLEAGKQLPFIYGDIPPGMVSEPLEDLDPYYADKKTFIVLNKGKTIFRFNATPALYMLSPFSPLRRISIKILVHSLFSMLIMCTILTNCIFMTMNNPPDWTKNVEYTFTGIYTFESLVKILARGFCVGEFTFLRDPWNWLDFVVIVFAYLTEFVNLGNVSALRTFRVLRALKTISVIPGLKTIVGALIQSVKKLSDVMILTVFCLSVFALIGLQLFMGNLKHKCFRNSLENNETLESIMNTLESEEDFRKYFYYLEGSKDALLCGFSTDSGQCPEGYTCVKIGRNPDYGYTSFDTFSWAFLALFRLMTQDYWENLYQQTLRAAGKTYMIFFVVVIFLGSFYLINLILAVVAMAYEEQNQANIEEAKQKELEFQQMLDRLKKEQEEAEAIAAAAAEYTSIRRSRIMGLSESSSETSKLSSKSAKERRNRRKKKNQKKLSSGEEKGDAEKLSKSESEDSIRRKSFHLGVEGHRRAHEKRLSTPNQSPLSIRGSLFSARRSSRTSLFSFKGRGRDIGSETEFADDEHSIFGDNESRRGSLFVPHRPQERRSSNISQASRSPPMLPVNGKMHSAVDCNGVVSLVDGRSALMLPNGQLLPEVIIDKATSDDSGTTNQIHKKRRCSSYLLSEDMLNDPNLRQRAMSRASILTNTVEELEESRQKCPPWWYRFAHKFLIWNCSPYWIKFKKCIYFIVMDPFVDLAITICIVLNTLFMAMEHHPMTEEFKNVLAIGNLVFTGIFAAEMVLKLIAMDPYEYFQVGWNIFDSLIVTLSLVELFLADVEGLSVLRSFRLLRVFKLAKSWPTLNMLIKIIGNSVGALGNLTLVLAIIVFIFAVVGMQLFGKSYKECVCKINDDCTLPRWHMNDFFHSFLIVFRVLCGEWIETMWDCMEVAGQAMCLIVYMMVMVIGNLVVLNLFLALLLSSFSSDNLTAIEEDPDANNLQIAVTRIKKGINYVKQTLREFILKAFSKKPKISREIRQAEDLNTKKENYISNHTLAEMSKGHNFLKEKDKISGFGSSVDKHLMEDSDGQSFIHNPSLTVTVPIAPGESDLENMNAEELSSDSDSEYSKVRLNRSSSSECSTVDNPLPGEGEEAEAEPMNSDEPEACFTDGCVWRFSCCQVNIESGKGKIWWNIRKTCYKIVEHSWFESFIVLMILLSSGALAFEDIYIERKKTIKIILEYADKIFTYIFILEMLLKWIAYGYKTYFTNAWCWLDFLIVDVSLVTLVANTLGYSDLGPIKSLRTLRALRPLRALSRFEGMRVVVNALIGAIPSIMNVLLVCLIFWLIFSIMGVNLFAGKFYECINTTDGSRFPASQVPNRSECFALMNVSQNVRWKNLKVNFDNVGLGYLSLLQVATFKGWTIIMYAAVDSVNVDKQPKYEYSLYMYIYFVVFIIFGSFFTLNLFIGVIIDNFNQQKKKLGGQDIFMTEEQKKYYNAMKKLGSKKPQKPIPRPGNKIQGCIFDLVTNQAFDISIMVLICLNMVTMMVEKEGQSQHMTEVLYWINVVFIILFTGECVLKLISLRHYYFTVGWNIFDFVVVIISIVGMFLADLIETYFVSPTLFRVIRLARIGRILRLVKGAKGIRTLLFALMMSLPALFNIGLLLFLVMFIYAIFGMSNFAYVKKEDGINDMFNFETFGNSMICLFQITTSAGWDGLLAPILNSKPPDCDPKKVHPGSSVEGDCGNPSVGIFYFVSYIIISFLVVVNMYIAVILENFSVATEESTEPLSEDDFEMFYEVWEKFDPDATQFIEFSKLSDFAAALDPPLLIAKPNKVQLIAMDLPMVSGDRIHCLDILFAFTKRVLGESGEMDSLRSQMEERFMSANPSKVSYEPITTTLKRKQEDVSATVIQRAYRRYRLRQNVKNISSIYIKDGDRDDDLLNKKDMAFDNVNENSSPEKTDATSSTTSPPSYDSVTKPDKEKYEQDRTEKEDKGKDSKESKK

Compound | inhibition at 0.1 µM (compound at 100 nM) | inhibition at 1 µM (compound at 1000 nM) | also measured
Cc1cc(N2CCN(Cc3cc(F)c(C(=O)NS(=O)(=O)C4CC4)cc3Cl)CC2)cc(C)c1F [Compound Z-180] | 70.4% | 97.8% | –
O=C(NS(=O)(=O)C1CC1)c1cc(Cl)c(OC[C@H]2CCCN2Cc2ccc(Cl)cc2)cc1F [Compound C7, (R)-5-chloro-4-((1-(4-chlorobenzyl)pyrrolidin-2-yl)methoxy)-N-(cyclopropylsulfonyl), reference compound] | – | – | inhibition at 0.1 µM: 31.1%; inhibition at 1 µM: 67.5%
CS(=O)(=O)NC(=O)c1cc(C2CC2)c(CN2CCN(Cc3cc(Cl)cc(Cl)c3)CC2)cc1F [Compound C11, reference compound] | 23.1% | 51.9% | inhibitory activity against Nav1.7 (in words): significantly reduced
O=C(NS(=O)(=O)C1CC1)c1cc(C2CC2)c(CN2CCN(c3cc(Cl)cc(Cl)c3)CC2)cc1F [Compound Z-197] | – | – | inhibition at 0.1 µM: 83.6%; inhibition at 1 µM: 100%
O=C(NS(=O)(=O)C1CC1)c1cc(Cl)c(CN2CCN(c3ccc(C(F)(F)F)cc3)CC2)cc1F [Compound Z-174] | 78% | 95.1% | –
O=C(NS(=O)(=O)C1CC1)c1cc(Cl)c(OC[C@H]2CCCN2C(=O)c2ccc(C(F)(F)F)cc2)cc1F [Compound C10, (R)-5-chloro-N-(cyclopropylsulfonyl)-2-fluoro-4-((1-(4-(trifluoromethyl)benzoyl)pyrrolidin-2-yl)methoxy), reference compound] | 7.83% | 24.7% | –
Cc1cc(CN2CCN(Cc3cc(F)c(C(=O)NS(=O)(=O)C4CC4)cc3Cl)CC2)ccc1Cl [Compound C4, 5-chloro-4-((4-(4-chloro-3-methylbenzyl)piperazin-1-yl)methyl)-N-(cyclopropylsulfonyl)-2-fluorobenzamide, reference compound] | 18.6% | 58.9% | inhibitory activity against Nav1.7 (in words): significantly reduced
O=C(NS(=O)(=O)C1CC1)c1cc(Cl)c(OC[C@H]2CCCN2C(=O)c2ccc(Cl)cc2)cc1F [Compound C9, (R)-5-chloro-4-((1-(4-chlorobenzoyl)pyrrolidin-2-yl)methoxy)-N-(cyclopropylsulfonyl), reference compound] | 5.49% | 29.1% | –
Cc1cc(C(=O)N2CCN(Cc3cc(F)c(C(=O)NS(=O)(=O)C4CC4)cc3Cl)CC2)ccc1Cl [Compound C3, reference compound] | 17.6% | 52.3% | –
CCc1cc(C(=O)NS(=O)(=O)C2CC2)c(F)cc1CN1CCN(c2ccc(Cl)c(Cl)c2)CC1 [Compound Z-191] | 73.3% | 95% | –
O=C(NS(=O)(=O)C1CC1)c1cc(C2CC2)c(CN2CCN(Cc3cc(Cl)cc(Cl)c3)CC2)cc1F [Compound C1, reference compound] | – | – | inhibitory activity against Nav1.7 (in words): significantly reduced; inhibition at 0.1 µM: 52%; inhibition at 1 µM: 64%
Cc1c(F)ccc(N2CCN(Cc3cc(F)c(C(=O)NS(=O)(=O)C4CC4)cc3Cl)CC2)c1Cl [Compound Z-184] | 70.3% | 98.5% | –
O=C(NS(=O)(=O)C1CC1)c1cc(Cl)c(OC[C@H]2CCCN2Cc2ccc(C(F)(F)F)cc2)cc1F [Compound C8, (R)-5-chloro-N-(cyclopropylsulfonyl)-2-fluoro-4-((1-(4-(trifluoromethyl)benzyl)pyrrolidin-2-yl)methoxy), reference compound] | 47% | 66.8% | –
Cc1cc(N2CCN(Cc3cc(F)c(C(=O)NS(=O)(=O)C4CC4)cc3Cl)CC2)cc(C)c1Cl [Compound Z-185] | 85.3% | 94.9% | –
O=C(NS(=O)(=O)C1CC1)c1cc(Cl)c(OC[C@H]2CCCN2c2ccc(C(F)(F)F)cn2)cc1F [Compound Z-150, (R)-5-chloro-N-(cyclopropylsulfonyl)-2-fluoro-4-((1-(5-(trifluoromethyl)pyridin-2-yl)pyrrolidin-2-yl)methoxy)benzamide] | 93.3% | 96.7% | –
Cc1c(F)c(F)cc(N2CCN(Cc3cc(F)c(C(=O)NS(=O)(=O)C4CC4)cc3Cl)CC2)c1F [Compound Z-182] | 77.2% | 97.6% | –
O=C(NS(=O)(=O)C1CC1)c1cc(Cl)c(CN2CCN(C(=O)c3ccc(Cl)cc3)CC2)cc1F [Compound C5, reference compound] | 17.2% | 36.8% | –
CCc1cc(C(=O)NS(=O)(=O)C2CC2)c(F)cc1CN1CCN(c2ccc(Cl)c(F)c2)CC1 [Compound Z-193] | 72.6% | 95.7% | –
O=C(NS(=O)(=O)C1CC1)c1cc(C2CC2)c(OC[C@H]2CCCN2c2ccc(C(F)(F)F)cn2)cc1F [Compound Z-142, (R)-5-cyclopropyl-N-(cyclopropylsulfonyl)-2-fluoro-4-((1-(5-(trifluoromethyl)pyridin-2-yl)pyrrolidin-2-yl)methoxy)benzamide] | 92.2% | 97.8% | –
Cc1c(Cl)ccc(N2CCN(Cc3cc(F)c(C(=O)NS(=O)(=O)C4CC4)cc3Cl)CC2)c1F [Compound Z-188] | 81.8% | 98.1% | –
CCc1cc(C(=O)NS(=O)(=O)C2CC2)c(F)cc1CN1CCN(c2cc(Cl)cc(Cl)c2)CC1 [Compound Z-192] | 77.7% | 98.4% | –
O=C(NS(=O)(=O)C1CC1)c1cc(Cl)c(CN2CCN(Cc3ccc(Cl)cc3)CC2)cc1F [Compound C6, reference compound] | 11.2% | 57.2% | –
CS(=O)(=O)NC(=O)c1cc(C2CC2)c(CN2CCN(Cc3ccc(Cl)c(Cl)c3)CC2)cc1F [Compound C2, reference compound] | 49.2% | 64.8% | inhibitory activity against Nav1.7 (in words): significantly reduced
(cyclopropylsulfonyl)-4-((4-(3,4-dichlorophenyl) piperazin-1-yl)methyl)-2-fluorobenzamide [Compound Z-196] | – | – | Inhibition of Nav1.7 100 nM(%) (compound at 100 nM): 85.03%; Inhibition of Nav1.7 1000 nM(%) (compound at 1000 nM): 93.02%
